TGI data for two molecules are collected here from PubChem BioAssay (NCI).

Test systems include MDA-MB-231 breast; MCF7 breast; HS 578T breast; PC-3 prostate; MDA-N; RXF-631 renal.
Holding throughout (assay): NCI anticancer screen, dose series, 48 h

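A five-concentration, 48-hour dose response in 96-well plates underlies each endpoint, interpolated linearly between surrounding concentrations. TGI denotes the concentration required for complete inhibition of growth.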 Bounds are passed on as bounds.

`O=c1cnn(C/C=C\CO)c(=O)[nH]1`: the TGI with MDA-MB-231 breast, in the assay with MCF7 breast, in the assay with HS 578T breast, in the assay on PC-3 prostate and in the assay with MDA-N was greater than 100 µM throughout.

`O=C(Nc1cccc2ccccc12)Oc1ccccc1C1CCCCC1` returned a TGI with RXF-631 renal of 36.7 µM.
